# Test results from US20080207522A1, “Antimicrobial Peptides” (priority 2004, published 2008).
# Several values for one entry are separate records, joined by “and”; a condition that tells them apart may be missing. Identical values can stand only once.
# Legend:
# [1] = tested on: Pseudomonas aeruginosa strain H1001; assay: Assay for the cleaved (free, soluble) peptides from cellulose support, luminescence killing assay; format: cell-based; design: key: 1: Peptides showing stronger killing than Bac2A at a 4 to 8-fold higher dilution; Peptides showing stronger killing compared to that of Bac2A at a 4-fold higher dilution; 3: Peptides similar to Bac2A; 4: Peptides similar to Bac2A at the highest concentration but demonstrating weaker killing at a 2-fold dilution; 5: Peptides giving very weak or no killing at a 2-fold dilution; 6: Peptides with weak killing activity at the highest concentration; details: free (cleaved) peptides, killing relative to Bac2A
# Procedure: Assay for the cleaved peptides from cellulose support. The peptides were cleaved from the dried membrane in an ammonia atmosphere overnight, resulting in free peptides with an amidated C-terminus. The free peptides contained two β-alanines at the C-terminus, in addition to being amidated due to the linker between the cellulose membrane and the peptide sequence. The peptide spots were punched out and transferred in a 96-well microtiter plate. Serial dilutions were carried out from the membrane spots. Four rows were filled with four controls including two with Bac2A and two with of an unrelated peptide. The other eight rows were used for serial dilution steps of the peptide variants. An overnight culture of Pseudomonas aeruginosa strain H1001 was diluted 1:500 using either LB media or 100 mM Tris buffer pH 7.3, 20 mM glucose and was added to the wells (100 μl/well) containing the peptide spots. In all other wells 50 μl were added. The microtiter plate was incubated for 30 min at 37° C. to release the peptides from the membrane. Subsequently, a dilution series were performed and the plate was incubated at 37° C. The luminescence produced by the ATP dependent luciferase system were detected in a time dependent manner using a Tecan Spectra Fluor plus.
# (§1) Strains. For the killing assay a mini-Tn5-lux mutant in Pseudomonas aeruginosa H103 was used. The strain is called H1001 and contains a fliC::luxCDABE transcriptional fusion resulting in constitutive expression of luciferase. The bacterial strains used for the antimicrobial activity assays included Escherichia coli UB1005 (F-, nalA37, metB1), a wild-type Salmonella enterica ssp. Typhimurium (S. Typhimurium), wild-type Pseudomonas aeruginosa PAO1 strain H103, Enterococcus faecalis ATCC29212, Staphylococcus aureus ATCC25923, and a clinical isolate of Staphylococcus epidermidis obtained from Dr. D. Speert (Department of Medicine, University of British Columbia). Antifungal activity was tested using a lab isolate of Candida albicans obtained from Dr. B. Dill (Department of Microbiology and Immunology, University of British Columbia).
# Peptide synthesis on cellulose is a very effective and inexpensive way to investigate many different peptide variants for one particular activity. However, one of the problems of this technique is the low peptide density synthesized on the membrane, about 280 nmol per cm2. An average peptide spot used for the experiments presented is about 0.3 cm2. Therefore, an assay had to be developed that was sensitive enough to show activity with this amount of peptides. P. aeruginosa H1001 has a reporter system (e.g., a luciferase gene cassette) incorporated into the bacterial chromosome in the fliC gene (involved in flagellar biosynthesis) that is constitutively expressed. It will thus produce light if ATP is present. When this strain is killed, e.g. by peptides, the amount of light produced will decrease due to a decrease in ATP levels in the killed cells. This action can thus be monitored by detecting luminescence in a microtiter plate luminescence reader over time. The volume and amount of cells per well were optimized for this assay. After screening, the killing action was monitored with small amounts of the parent peptide Bac2A (2 μg/ml of free peptide).
# Forty-nine scrambled peptides (Bac002-Bac050) were synthesized on the cellulose support and then cleaved by ammonia gas resulting in free peptides with an amidated C-terminus including the linker. The peptide spots were transferred to a 96-well microtiter plate and incubated for 30 min to dissociate the peptides from the cellulose. After serial dilution and addition of strain H1001, luminescence was recorded in a time dependent manner (FIG. 1). All 50 scrambled peptides were compared to Bac2A ([…]-NH2; SEQ ID NO: 1) by this assay (see Table 2). […] Further since all scrambled peptides had some activity, a sequence-specific interaction of the peptides with a receptor or target could be excluded.
# [2] = tested on: Pseudomonas aeruginosa strain H1001 fliC::luxCDABE; assay: Luminescence-based assay for the non-cleaved (bound) peptides on cellulose membranes; format: cell-based; details: for Luminescence at the given time in minutes: 0 / Luminescence at the given time in minutes: 20 / Luminescence at the given time in minutes: 40 / Luminescence at the given time in minutes: 60 / Luminescence at the given time in minutes: 80 / Luminescence at the given time in minutes: 100 / Luminescence at the given time in minutes: 120 / Luminescence at the given time in minutes: 180 / Luminescence at the given time in minutes: 240: cellulose-bound peptide; for Luminescence at the given time in minutes: 0: 0 min; for Luminescence at the given time in minutes: 20: 20 min; for Luminescence at the given time in minutes: 40: 40 min; for Luminescence at the given time in minutes: 60: 60 min; for Luminescence at the given time in minutes: 80: 80 min; for Luminescence at the given time in minutes: 100: 100 min; for Luminescence at the given time in minutes: 120: 120 min; for Luminescence at the given time in minutes: 180: 180 min; for Luminescence at the given time in minutes: 240: 240 min; for Activity Class bound: uncleaved cellulose-bound peptides; for ability to inhibit light production (luminescence): cellulose bound peptide spots, three hours at 37° C., FIG. 2
# Procedure: Luminescence-based MIC assay for the non-cleaved peptides on cellulose membranes. The peptide spots were punched out and transferred to a 96 well microtiter plate with a clear polystyrene bottom and opaque white polypropylene sides (PerkinElmer, Boston, USA). The spots were washed two times with 100% ethanol for 5 min and afterwards equilibrated five times with 100 mM Tris buffer pH 7.3 for 5 min. An overnight culture of Pseudomonas aeruginosa strain H1001 fliC::luxCDABE was diluted 1:50 in new MH medium and incubated at 37° C. to an OD600 of 0.35. This bacterial culture was diluted 1:25 into 10 mM Tris-HCl buffer, pH 7.3 containing 20 mM glucose. Fifty μl of this culture was added to all wells of the microtiter plate and incubated at 37° C. The luminescence of the strain produced by the ATP-dependent luciferase system was detected in a time dependent manner using a Tecan Spectra Fluor plus (Tecan, Austria). At the end of the experiment, the membranes were cleaned by washing the spots two times with 100% ethanol for five minutes. After removing the ethanol the membrane was air-dried.
# as §1
# The same set of peptides, as well as the reversed sequence of Bac2A-R ([…]; SEQ ID NO: 2166), were synthesized on cellulose and left uncleaved. The production of light was initially compared in wells containing spots of Bac2A, Bac2A-R (with the reversed sequence of Bac2A), the unrelated negative-control peptide, or, as additional controls, only cellulose, or only bacteria (FIG. 2).
# As a control, the negative control (unrelated) peptide Bac429 and parent peptide Bac2A (=Bac001) were used in several different wells of the microtiter plate. Luminescence (relative light units; RLU) was measured at 14 different time points, 9 of which are shown. To permit comparison of the data with the free peptide data set, the result for each peptide was classified into six different groups, like the data set with the free peptides (Table 2). […] For the soluble peptides the following classes were established: […]
sequence,measurement,setting,value
AAVRRRVRLVII [Bac010],Activity Class Soluble,[1],1
same,Luminescence at the given time in minutes: 0,[2],4380 RLU
same,Luminescence at the given time in minutes: 20,[2],6719 RLU
same,Luminescence at the given time in minutes: 40,[2],4170 RLU
same,Luminescence at the given time in minutes: 60,[2],1628 RLU
same,Luminescence at the given time in minutes: 80,[2],562 RLU
same,Luminescence at the given time in minutes: 100,[2],129 RLU
same,Luminescence at the given time in minutes: 120,[2],121 RLU
same,Luminescence at the given time in minutes: 180,[2],99 RLU
same,Luminescence at the given time in minutes: 240,[2],56 RLU
same,Activity Class bound,[2],3 (Peptides similar to Bac2A resulting in lux values of less than 500 after 240 min.)
ARAILIRVVRRV [Bac025],Activity Class Soluble,[1],3
same,Luminescence at the given time in minutes: 0,[2],4354 RLU
same,Luminescence at the given time in minutes: 20,[2],6728 RLU
same,Luminescence at the given time in minutes: 40,[2],3660 RLU
same,Luminescence at the given time in minutes: 60,[2],1127 RLU
same,Luminescence at the given time in minutes: 80,[2],343 RLU
same,Luminescence at the given time in minutes: 100,[2],113 RLU
same,Luminescence at the given time in minutes: 120,[2],115 RLU
same,Luminescence at the given time in minutes: 180,[2],114 RLU
same,Luminescence at the given time in minutes: 240,[2],80 RLU
same,Activity Class bound,[2],3 (Peptides similar to Bac2A resulting in lux values of less than 500 after 240 min.)
ARIARRVRILVV [Bac021],Activity Class Soluble,[1],4
same,Luminescence at the given time in minutes: 0,[2],5470 RLU
same,Luminescence at the given time in minutes: 20,[2],7247 RLU
same,Luminescence at the given time in minutes: 40,[2],4581 RLU
same,Luminescence at the given time in minutes: 60,[2],1967 RLU
same,Luminescence at the given time in minutes: 80,[2],683 RLU
same,Luminescence at the given time in minutes: 100,[2],278 RLU
same,Luminescence at the given time in minutes: 120,[2],196 RLU
same,Luminescence at the given time in minutes: 180,[2],129 RLU
same,Luminescence at the given time in minutes: 240,[2],128 RLU
same,Activity Class bound,[2],3 (Peptides similar to Bac2A resulting in lux values of less than 500 after 240 min.)
ARRARIRILVVV [Bac032],Activity Class Soluble,[1],4
same,Luminescence at the given time in minutes: 0,[2],4649 RLU
same,Luminescence at the given time in minutes: 20,[2],6342 RLU
same,Luminescence at the given time in minutes: 40,[2],4584 RLU
same,Luminescence at the given time in minutes: 60,[2],2088 RLU
same,Luminescence at the given time in minutes: 80,[2],595 RLU
same,Luminescence at the given time in minutes: 100,[2],148 RLU
same,Luminescence at the given time in minutes: 120,[2],107 RLU
same,Luminescence at the given time in minutes: 180,[2],54 RLU
same,Luminescence at the given time in minutes: 240,[2],33 RLU
same,Activity Class bound,[2],3 (Peptides similar to Bac2A resulting in lux values of less than 500 after 240 min.)
"GATPEDLNQKLS [Bac429, negative control (unrelated) peptide, reference compound]",ability to inhibit light production (luminescence),[2],no activity in decreasing luminescence
same,Luminescence at the given time in minutes: 0,[2],4295 RLU and 4593 RLU and 4337 RLU and 4761 RLU and 4537 RLU
same,Luminescence at the given time in minutes: 20,[2],7478 RLU and 7525 RLU and 7118 RLU and 7536 RLU and 7275 RLU
same,Luminescence at the given time in minutes: 40,[2],6031 RLU and 6900 RLU and 6593 RLU and 6318 RLU and 6459 RLU
same,Luminescence at the given time in minutes: 60,[2],5770 RLU and 6732 RLU and 6716 RLU and 6102 RLU and 6149 RLU
same,Luminescence at the given time in minutes: 80,[2],5449 RLU and 6701 RLU and 6273 RLU and 5996 RLU and 6092 RLU
same,Luminescence at the given time in minutes: 100,[2],4779 RLU and 6812 RLU and 6453 RLU and 6086 RLU and 5799 RLU
same,Luminescence at the given time in minutes: 120,[2],4438 RLU and 6872 RLU and 6210 RLU and 5899 RLU and 5611 RLU
same,Luminescence at the given time in minutes: 180,[2],3939 RLU and 7674 RLU and 6656 RLU and 6384 RLU and 5656 RLU
IILAVRAVRRVR [Bac029],Luminescence at the given time in minutes: 0,[2],4538 RLU
same,Luminescence at the given time in minutes: 20,[2],6664 RLU
same,Luminescence at the given time in minutes: 40,[2],5062 RLU
same,Luminescence at the given time in minutes: 60,[2],3963 RLU
same,Luminescence at the given time in minutes: 80,[2],2745 RLU
same,Luminescence at the given time in minutes: 100,[2],1799 RLU
same,Luminescence at the given time in minutes: 120,[2],1279 RLU
same,Luminescence at the given time in minutes: 180,[2],1012 RLU
same,Luminescence at the given time in minutes: 240,[2],942 RLU
same,Activity Class bound,[2],4 (Peptides reducing luminescence (lux) values to between 500 to 1499 after 240 min.)
IVVRRRRAALVI [Bac030],Luminescence at the given time in minutes: 0,[2],4618 RLU
same,Luminescence at the given time in minutes: 20,[2],7325 RLU
same,Luminescence at the given time in minutes: 40,[2],5921 RLU
same,Luminescence at the given time in minutes: 60,[2],5326 RLU
same,Luminescence at the given time in minutes: 80,[2],4981 RLU
same,Luminescence at the given time in minutes: 100,[2],4418 RLU
same,Luminescence at the given time in minutes: 120,[2],4087 RLU
same,Luminescence at the given time in minutes: 180,[2],3861 RLU
same,Luminescence at the given time in minutes: 240,[2],3679 RLU
same,Activity Class bound,[2],6 (Peptides having residual luminescence (lux) values greater than 3000 after 240 min.)
RAVRIVVIRALR [Bac2A-R],ability to inhibit light production (luminescence),[2],only a slightly decreased ability to inhibit light production
RRRAIVRVVAIL [Bac023],Luminescence at the given time in minutes: 0,[2],3958 RLU
same,Luminescence at the given time in minutes: 20,[2],7783 RLU
same,Luminescence at the given time in minutes: 40,[2],5656 RLU
same,Luminescence at the given time in minutes: 60,[2],3751 RLU
same,Luminescence at the given time in minutes: 80,[2],1827 RLU
same,Luminescence at the given time in minutes: 100,[2],761 RLU
same,Luminescence at the given time in minutes: 120,[2],329 RLU
same,Luminescence at the given time in minutes: 180,[2],123 RLU
same,Luminescence at the given time in minutes: 240,[2],79 RLU
same,Activity Class bound,[2],3 (Peptides similar to Bac2A resulting in lux values of less than 500 after 240 min.)
RVLIARVVRAIR [Bac027],Luminescence at the given time in minutes: 0,[2],4437 RLU
same,Luminescence at the given time in minutes: 20,[2],6695 RLU
same,Luminescence at the given time in minutes: 40,[2],4991 RLU
same,Luminescence at the given time in minutes: 60,[2],4421 RLU
same,Luminescence at the given time in minutes: 80,[2],4011 RLU
same,Luminescence at the given time in minutes: 100,[2],3545 RLU
same,Luminescence at the given time in minutes: 120,[2],3100 RLU
same,Luminescence at the given time in minutes: 180,[2],3182 RLU
same,Luminescence at the given time in minutes: 240,[2],3513 RLU
same,Activity Class bound,[2],6 (Peptides having residual luminescence (lux) values greater than 3000 after 240 min.)
